Source: PubChem BioAssay AID686920 (Broad Institute, 2013)
The source made the active and inactive calls.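 Rule for the calls: active = fitted curve reaching 35% inhibition at a dose no higher than twice the top valid tested dose; inconclusive = flat fit with 30 to 70% inhibition, or a poor fit; inactive = the rest, including activity in the opposite direction.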

Assay: NR0B1 reporter signal reduction in A673 cells – cell-based, luciferase luminescence, cherry-pick, EWS/Fli inhibitor project, dose response (AID 686920)
Conditions: A673 NR0B1-luciferase reporter, viability-normalised luminescence; at 21 µM (top of the series)
With `Cc1ccc(Cc2c(-c3ccco3)nc3c(C)cc(Br)cn23)cc1` the activity change, negative = inhibition was 77.8% (inactive).
With `COCc1cc(C)nc2sc(C(=O)NCCO)c(-n3cccc3)c12` the activity change, negative = inhibition was 112% (inactive).

Same assay, conditions: A673 NR0B1-luciferase reporter, viability-normalised luminescence; at 68 µM (top of the series)
For `Cc1ccccc1N=Nc1c(O)n(C)c2ccccc12`, the activity change, negative = inhibition was -31.3% (inactive).
With `COc1ccccc1-c1cn(CC[C@H]2CC[C@@H](NC(=O)C3CCCC3)[C@@H](CO)O2)nn1` the activity change, negative = inhibition was -4.29% (inactive).
For `C/C=C/c1ccc(C2[C@@H]3CN(C(=O)Cc4ccccc4)C[C@H]2N3)cc1` (stereo partly specified), the activity change, negative = inhibition was -8.33% (inactive).
In the case of `CCc1ccc(Cn2ncc3c(C(=O)O)cc(C)nc32)cc1`, the activity change, negative = inhibition is reported as 13.8% (inactive).
For `Cc1occc1-c1n[nH]c(=S)n1C`, the activity change, negative = inhibition was 10.2% (inactive).
For `COc1cc(/C=N/NC(=O)c2csc3c2CCCC3)cc(OC)c1O`, the activity change, negative = inhibition was 16.3% (inactive).
For `COC(=O)C[C@@H]1CC[C@@H]2[C@H](COc3ccc(NC(=O)c4cc(F)cc(F)c4)cc3C(=O)N2C)O1`, the activity change, negative = inhibition was -0.173% (inactive).
For `Nc1ccn([C@@H]2O[C@H](CO)[C@@H](O)C2O)c(=O)n1` (stereo partly specified), the activity change, negative = inhibition was -31.3% (inactive).
With `CN(C)C(=S)N=Nc1[nH]c2ccccc2c1O` the activity change, negative = inhibition was 13% (inactive).
In the case of `S=C(NCCN1CCOCC1)Nc1ccccc1Cl`, the activity change, negative = inhibition is reported as 15.5% (inactive).
With `COC(=O)c1c(C)[nH]c(/C=N/Nc2ccccc2)c1C` the activity change, negative = inhibition was 38.6% (inactive).
For `Cc1noc(C)c1NC(=O)Nc1ccc2c(c1)CC(=O)N([C@@H](C)CO)C[C@@H](C)[C@@H](CN(C)Cc1ccc(Cl)c(Cl)c1)O2`, the activity change, negative = inhibition was -31.5% (inactive).
In the case of `COc1ccc(OC)c(-c2cc(C(F)(F)F)c3c(n2)sc2c(O)cc(=O)[nH]c23)c1`, the activity change, negative = inhibition is reported as 5.23% (inactive).
In the case of `Cc1ccc(N=C2NC(=O)/C(=C\c3cccs3)S2)cc1C`, the activity change, negative = inhibition is reported as 48.8% (inactive).
In the case of `CN(C)C(=O)c1ccc(-c2ccccc2[C@@H]2[C@@H](CO)N(C(=O)C3CC3)[C@H]2C#N)cc1`, the activity change, negative = inhibition is reported as -1.25% (inactive).
With `COC(=O)C[C@@H]1CC[C@@H]2[C@H](COc3ccc(NC(=O)c4cccc(Cl)c4)cc3C(=O)N2C)O1` the activity change, negative = inhibition was -6.57% (inactive).
For `Brc1ccc(CSc2nnc(-c3ccco3)o2)cc1`, the activity change, negative = inhibition was 86.7% (inactive).
For `COC(=O)C[C@@H]1CC[C@@H]2[C@H](COc3ccc(NC(=O)Nc4cccc(Cl)c4)cc3C(=O)N2C)O1`, the activity change, negative = inhibition was -19.3% (inactive).
With `Cc1c(N=Cc2cc(Br)cc(Br)c2O)cccc1C(=O)O` the activity change, negative = inhibition was 14.9% (inactive).
With `CC(Oc1cccc(Cl)c1)C(=O)NCCCCc1ccccc1` (stereo unspecified) the activity change, negative = inhibition was 4.85% (inactive).
With `COC(=O)C[C@@H]1CC[C@@H]2[C@H](COc3ccc(NC(=O)c4ccc(F)cc4)cc3C(=O)N2C)O1` the activity change, negative = inhibition was -47% (inactive).
In the case of `Cc1ccc(NC(=O)COC(=O)c2ccc3c(c2)OCO3)cc1S(=O)(=O)N1CCCCC1`, the activity change, negative = inhibition is reported as 9.71% (inactive).
In the case of `CN(C)Cc1c(O)ccc2c1O/C(=C\C=C\c1ccccc1)C2=O`, the activity change, negative = inhibition is reported as 5.05% (inactive).
With `CCNC(=O)[C@@H]1[C@@H](CO)[C@@H]2Cn3c(ccc(C4=CCCCC4)c3=O)[C@H]1N2CC` the activity change, negative = inhibition was -2.58% (inactive).
For `CCn1c(/C=N/NC(=O)c2ccc(OC)cc2)nc2ccccc21`, the activity change, negative = inhibition was 30.3% (inactive).
With `CCOc1cc2[nH]c(=S)n(Cc3ccc(C(=O)N4CCN(C)CC4)cc3)c(=O)c2cc1OCC` the activity change, negative = inhibition was 20% (inactive).
For `CC(NC(=O)c1ccco1)c1nc(-c2ccc(C(C)(C)C)cc2)no1` (stereo unspecified), the activity change, negative = inhibition was 73.3% (inactive).
For `N=c1ccn2c(n1)O[C@H]1[C@H](O)[C@@H](CO)O[C@H]12`, the activity change, negative = inhibition was -26.9% (inactive).
For `C/C(=N\N(c1ccccc1)c1ccccc1)c1ccco1`, the activity change, negative = inhibition was -1.23% (inactive).
In the case of `COc1cccc(S(=O)(=O)N(C)C[C@H]2OCc3cnnn3CCCC(=O)N([C@@H](C)CO)C[C@H]2C)c1`, the activity change, negative = inhibition is reported as -19.9% (inactive).
For `COc1cc(/C=N\Nc2nc(-c3ccc(C)cc3)c(NC(C)=O)s2)ccc1O`, the activity change, negative = inhibition was 80.8% (inactive).
For `CC1(CCc2ccccc2)NC(=O)N(CC(=O)N2CC(=O)Nc3ccccc32)C1=O` (stereo unspecified), the activity change, negative = inhibition was 6.97% (inactive).
With `COc1ccc(-c2cn(-c3ccc(OC)cc3)c3[n+]2-c2ccccc2CC3)cc1` the activity change, negative = inhibition was -21.1% (inactive).
In the case of `CCCCOc1ccc(NC(=O)C(=O)NCCCn2ccnc2)cc1`, the activity change, negative = inhibition is reported as -0.492% (inactive).
For `CC(=O)c1ccc(N(C(=O)Cn2nnc3ccccc32)C(C(=O)NCc2ccccc2)c2ccccn2)cc1` (stereo unspecified), the activity change, negative = inhibition was 102% (inactive).
For `COC(=O)C[C@H]1CC[C@@H](NC(=O)Nc2ccc(C(F)(F)F)cc2)[C@H](CO)O1`, the activity change, negative = inhibition was 16.7% (inactive).
In the case of `c1cncc(-c2ccc([C@@H]3[C@H]4CNC[C@@H]3N4CC3CCOCC3)cc2)c1`, the activity change, negative = inhibition is reported as -7.31% (inactive).
For `COC(=O)C[C@H]1CC[C@H]2[C@@H](COc3ccc(NC(=O)Nc4cccc(Cl)c4)cc3C(=O)N2C)O1`, the activity change, negative = inhibition was 18.6% (inactive).
For `Cc1ccsc1C(=O)OCC(=O)NCCC1=CCCCC1`, the activity change, negative = inhibition was 97.5% (inactive).
With `Nc1nc(N)c2c(ccc3nccc32)[nH]1` the activity change, negative = inhibition was 55.3% (inactive).
In the case of `COC(=O)C[C@@H]1CC[C@@H]2[C@@H](COc3ccc(NC(=O)Cc4cccs4)cc3C(=O)N2C)O1`, the activity change, negative = inhibition is reported as -27.4% (inactive).
In the case of `COC(=O)C(CC#Cc1ccc2c(c1)[C@]1(C(=O)N2)[C@H](c2ccc(OCCO)cc2)N2[C@H](c3ccccc3)[C@H](c3ccccc3)OC(=O)[C@H]2[C@@H]1C(=O)N1CCN(c2ncccn2)CC1)C(=O)OC`, the activity change, negative = inhibition is reported as 0.883% (inactive).
With `O=C(Cc1nn[nH]n1)c1ccccc1O` the activity change, negative = inhibition was 7.17% (inactive).
With `CC(=O)Nc1ccc(OCC(=O)N(CC(C)C)C2CCS(=O)(=O)C2)cc1` (stereo unspecified) the activity change, negative = inhibition was 6.28% (inactive).
For `O=C(CNC(=O)Cc1ccccc1)N=Nc1c(O)n(Cc2ccc3c(c2)OCO3)c2ccccc12`, the activity change, negative = inhibition was -28.3% (inactive).
With `CCOc1ccc(NC(=O)C(=O)N/N=C\c2ccc(CNS(=O)(=O)c3ccccc3)o2)cc1` the activity change, negative = inhibition was -7.85% (inactive).
In the case of `CCS(=O)(=O)N1Cc2ccccc2CC1C(=O)Nc1nnc(SCc2ccc(C#N)cc2)s1` (stereo unspecified), the activity change, negative = inhibition is reported as -0.731% (inactive).
With `COc1ccccc1NS(=O)(=O)c1cc(NC(=O)c2cc3ccccc3oc2=O)ccc1C` the activity change, negative = inhibition was 53.4% (inactive).
With `C=CCOC(=O)c1sc(NC(=O)c2ccc(OC)cc2)nc1C` the activity change, negative = inhibition was 39% (inactive).
For `C[C@H](CO)N1C[C@H](C)[C@H](CN(C)Cc2ccc(C(=O)Nc3ccccc3N)cc2)Oc2ccc(N(C)C)cc2CC1=O`, the activity change, negative = inhibition was 10.7% (inactive).
With `COC(=O)C[C@H]1CC[C@@H]2[C@H](COc3ccc(NC(=O)Nc4cccc(Cl)c4)cc3C(=O)N2C)O1` the activity change, negative = inhibition was 14.5% (inactive).
For `O=C(Nc1cccc(Oc2ccc3c(c2)C(=O)NC3=O)c1)c1cccs1`, the activity change, negative = inhibition was -4.58% (inactive).
With `C(=C\c1ccc(C2[C@H]3CNC[C@@H]2N3Cc2ccccn2)cc1)/c1ccccc1` (stereo partly specified) the activity change, negative = inhibition was 32.3% (inactive).
For `Cc1noc(C)c1C(=O)Nc1sccc1C(N)=O`, the activity change, negative = inhibition was 20.7% (inactive).
